Key:
[1] = system: monocotyledonous and dicotyledonous weeds; test: Pre-emergence test experiment (weeds); assay type: in vivo; set-up: key: 9: completely dead; 8: growth control rate is greater than or equal to 90% and less than 100%; 7: growth control rate is greater than or equal to 80% and less than 90%; 6: growth control rate is greater than or equal to 70% and less than 80%; growth control rate is greater than or equal to 50% and less than 70%; 4: growth control rate is greater than or equal to 30% and less than 50%; growth control rate is greater than or equal to 20% and less than 30%; growth control rate is greater than or equal to 10% and less than 20%; growth control rate is less than 10%; 0: no effect; conditions: 30 g a.i./ha
[2] = system: major crops; test: Pre-emergence test experiment (crops); assay type: in vivo; set-up: key: 9: completely dead; 8: growth control rate is greater than or equal to 90% and less than 100%; 7: growth control rate is greater than or equal to 80% and less than 90%; 6: growth control rate is greater than or equal to 70% and less than 80%; growth control rate is greater than or equal to 50% and less than 70%; 4: growth control rate is greater than or equal to 30% and less than 50%; growth control rate is greater than or equal to 20% and less than 30%; growth control rate is greater than or equal to 10% and less than 20%; growth control rate is less than 10%; 0: no effect; conditions: 30 g a.i./ha

Row | SMILES | Pre-emergence activity level (growth control rate) on Amaranthus retroflexus [1] | Pre-emergence activity level (growth control rate) on Descurainia sophia [1] | Pre-emergence activity level (growth control rate) on Digitaria sanguinalis [1] | Pre-emergence activity level (growth control rate) on Setaria viridis [1] | Pre-emergence activity level (growth control rate) on Solanum nigrum [1] | Pre-emergence activity level (growth control rate) on Veronica [1] | Pre-emergence plant damage level (growth control rate) on Corn [2] | Pre-emergence plant damage level (growth control rate) on Cotton [2] | Pre-emergence plant damage level (growth control rate) on Soybean [2]
1 | COCc1ccc(-n2cnc(C(F)(F)F)n2)nc1Oc1ccc(F)c(OC(F)F)c1 [Compound 147] | 9 | 9 | 8 (growth control rate is greater than or equal to 90% and less than 100%) | 9 | 9 | 9 | 0 | 0 | 0
2 | CCc1ccc(-n2cnc(C(F)(F)F)n2)nc1Oc1cccc(OC(F)(F)F)c1 [Compound 71] | 9 | 9 | 9 | 9 | 9 | 9 | 0 | 0 | 0
3 | COc1cc(Oc2cccc(OC(F)(F)F)c2)nc(-n2cnc(C(F)(F)F)n2)c1 [Compound 78] | 9 | 9 | 9 | 8 (growth control rate is greater than or equal to 90% and less than 100%) | 8 (growth control rate is greater than or equal to 90% and less than 100%) | 9 | 0 | 0 | 0
4 | Cc1cc(Oc2cccc(OC(F)(F)F)c2)nc(-n2cnc(C(F)(F)F)n2)c1 [Compound 122] | 8 (growth control rate is greater than or equal to 90% and less than 100%) | 9 | 8 (growth control rate is greater than or equal to 90% and less than 100%) | 9 |  | 8 (growth control rate is greater than or equal to 90% and less than 100%) |  |  | 
5 | CCc1ccc(-n2cnc(C(F)(F)F)n2)nc1Oc1ccc(F)c(OC(F)(F)F)c1 [Compound 136] | 9 | 9 | 9 | 9 | 9 | 9 | 0 | 0 | 0
6 | CCc1ccc(-n2cnc(C(F)(F)F)n2)nc1Oc1cccc(CF)c1 [Compound 85] | 9 |  |  |  |  | 9 | 0 | 0 | 0
7 | COCc1ccc(-n2cnc(C(F)(F)F)n2)nc1Oc1cccc(C)c1 [Compound 149] |  |  | 8 (growth control rate is greater than or equal to 90% and less than 100%) | 8 (growth control rate is greater than or equal to 90% and less than 100%) |  |  | 0 | 0 | 0
8 | COCc1ccc(-n2cnc(C(F)(F)F)n2)nc1Oc1ccc(F)c(C(F)(F)F)c1 [Compound 143] | 9 | 9 | 8 (growth control rate is greater than or equal to 90% and less than 100%) | 9 | 9 | 9 | 0 | 0 | 0
9 | CSc1cc(Oc2cccc(OC(F)(F)F)c2)nc(-n2cnc(C(F)(F)F)n2)c1 [Compound 87] |  |  |  |  |  | 8 (growth control rate is greater than or equal to 90% and less than 100%) |  |  | 
10 | Cc1ccc(-n2cnc(C(F)(F)C(F)(F)F)n2)nc1Oc1ccc(F)c(C(F)(F)F)c1 [Compound 126] |  | 9 |  |  | 9 |  |  |  | 
11 | CCc1ccc(-n2cnc(C(F)(F)F)n2)nc1Oc1cccc(F)c1 [Compound 129] |  |  | 8 (growth control rate is greater than or equal to 90% and less than 100%) | 9 |  |  |  |  | 
12 | Cc1cc(Oc2ccc(F)c(OC(F)(F)F)c2)nc(-n2cnc(C(F)(F)F)n2)c1 [Compound 123] |  | 9 |  |  |  |  |  |  | 
13 | CSc1cc(Oc2cncc(C(F)(F)F)c2)nc(-n2cnc(C(F)(F)F)n2)c1 [Compound 111] |  | 9 |  | 8 (growth control rate is greater than or equal to 90% and less than 100%) |  |  |  |  | 
14 | CCc1ccc(-n2cnc(C(F)(F)F)n2)nc1Oc1cccc(C)c1 [Compound 134] | 8 (growth control rate is greater than or equal to 90% and less than 100%) | 9 | 8 (growth control rate is greater than or equal to 90% and less than 100%) |  |  |  |  |  | 
15 | Cc1cc(Oc2cccc(Cl)c2)nc(-n2cnc(C(F)(F)F)n2)c1 [Compound 121] |  | 9 |  |  |  |  |  |  | 
16 | CSc1cc(Oc2cccc(C(F)(F)F)c2)nc(-n2cnc(C(F)(F)F)n2)c1 [Compound 86] |  |  |  |  |  | 9 |  |  | 
17 | Cc1ccc(-n2cnc(C(F)F)n2)nc1Oc1cccc(F)c1 [Compound 81] | 9 | 9 |  |  |  | 9 |  |  | 
18 | CCc1ccc(-n2cnc(C(F)(F)F)n2)nc1Oc1cncc(C#N)c1 [Compound 94] |  |  |  | 8 (growth control rate is greater than or equal to 90% and less than 100%) |  |  |  |  | 
19 | COCc1ccc(-n2cnc(C(F)(F)F)n2)nc1Oc1cccc(F)c1 [Compound 138] |  | 9 |  |  | 9 |  |  |  | 
20 | CCc1ccc(-n2cnc(C(F)F)n2)nc1Oc1cccc(F)c1 [Compound 128] |  |  |  |  | 9 |  |  |  | 
21 | Cc1ccc(-n2cnc(C(F)(F)C(F)(F)F)n2)nc1Oc1cccc(C(F)F)c1 [Compound 125] |  | 9 |  |  | 9 |  |  |  | 
22 | Cc1ccc(-n2cnc(C3CC3)n2)nc1Oc1cccc(C(F)(F)F)c1 [Compound 100] |  |  |  | 9 | 8 (growth control rate is greater than or equal to 90% and less than 100%) |  |  |  | 
23 | CCc1ccc(-n2cnc(C(F)F)n2)nc1Oc1cccc(Cl)c1 [Compound 131] |  |  |  |  | 9 |  |  |  | 
24 | Cc1ccc(-n2cnc(C(F)(F)F)n2)nc1Oc1cccc(C#N)c1 [Compound 88] | 9 |  |  |  | 9 |  |  |  | 
25 | CCc1ccc(-n2cnc(C(F)(F)F)n2)nc1Oc1cccc(C#N)c1 [Compound 89] | 9 |  | 9 | 9 |  |  |  |  | 
26 | Cc1cc(Oc2ccc(F)c(C(F)(F)F)c2)nc(-n2cnc(C(F)(F)F)n2)c1 [Compound 120] |  | 9 |  |  |  |  |  |  | 
27 | CCc1ccc(-n2cnc(C(F)(F)F)n2)nc1Oc1ccc(F)c(C#N)c1 [Compound 96] | 8 (growth control rate is greater than or equal to 90% and less than 100%) | 9 |  |  |  |  |  |  | 
28 | CCc1ccc(-n2cnc(C(F)(F)F)n2)nc1Oc1cccc(Cl)c1 [Compound 130] |  | 9 |  |  | 9 |  |  |  | 
29 | Cc1ccc(-n2cnc(C(F)(F)C(F)(F)F)n2)nc1Oc1cccc(OC(F)F)c1 [Compound 127] |  | 9 |  | 8 (growth control rate is greater than or equal to 90% and less than 100%) | 9 |  |  |  | 

From patent publication US20260305610A1, “TRIAZOLE COMPOUND, AND PREPARATION METHOD THEREFOR, HERBICIDAL COMPOSITION AND USE THEREOF” (QINGDAO KINGAGROOT CHEMICAL COMPOUND CO., LTD., priority 2023, published 2026)
